Molecular target: T1, Mnn10 (MBP-fused Mnn10) (Candida albicans, UniProt Q59UR2)
T1 construct: non-transmembrane region, residues 70-335, MBP fusion (pMAL-p5X), E. coli BL21 (DE3) pLysS, amylose resin; tag kept
Test: mannosyltransferase assay, ANTS labelling of products, FACE gel
Format: biochemical
Conditions: 5 mM GDP-D-mannose, 10 mM α-1,6-D-mannobiose, 10 mM MnCl2, 50 mM HEPES pH 7.2, 30 °C, 1 h

T1 sequence (Q59UR2 entry or part of it): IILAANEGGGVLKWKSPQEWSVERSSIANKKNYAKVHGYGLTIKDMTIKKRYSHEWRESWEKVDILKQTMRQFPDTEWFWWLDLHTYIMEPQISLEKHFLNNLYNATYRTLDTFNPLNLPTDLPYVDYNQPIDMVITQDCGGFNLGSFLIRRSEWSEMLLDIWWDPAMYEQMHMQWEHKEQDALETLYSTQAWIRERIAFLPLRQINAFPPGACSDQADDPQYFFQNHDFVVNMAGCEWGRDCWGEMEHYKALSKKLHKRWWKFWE

| SMILES | mannosyltransferase assay, ANTS labelling of products, FACE gel (donor) | mannosyltransferase assay, ANTS labelling of products, FACE gel (acceptor) |
| --- | --- | --- |
| Nc1nc2c(ncn2[C@@H]2O[C@H](COP(=O)(O)OP(=O)(O)O[C@H]3O[C@H](CO)[C@@H](O)[C@H](O)[C@@H]3O)[C@@H](O)[C@H]2O)c(=O)[nH]1 [GDP-mannose] | Mnn10 catalyzes the transformation of GDP-mannose to α-1,6-mannobiose to form mannotriose and mannotetraose | – |
| OC[C@H]1O[C@H](OC[C@H]2OC(O)[C@@H](O)[C@@H](O)[C@@H]2O)[C@@H](O)[C@@H](O)[C@@H]1O (stereo partly drawn) [α-1,6-mannobiose] | – | required α-1,6-linked mannobiose as an acceptor and GDP-mannose as a donor |
